How the values were obtained:
Candida albicans SLU-1 = test: Radial diffusion assay (Example 3), wild type strain; assay type: cell-based; conditions: FIG. 2A
Experimental: (§1) For the radial diffusion assays, Candida albicans SLU-1 were grown as described above and SLU-2G were grown overnight in Sabouraud dextrose broth supplemented with 10 μg/mL amphotericin B and 5 μg/mL ceftriaxone at 37° C. Cultures were diluted 1:25 into fresh, unsupplemented broth and allowed to grow for 5 hours at 37° C. Cells were pelleted at 1,500×g for 5 minutes at 4° C. Supernatant was decanted and replaced with 5 mL of 10 mM phosphate buffer, pH 7.4. After centrifugation the cell pellets were resuspended with 5 mL phosphate buffer for an OD570 determination. One OD570 for SLU-1 cells was 3×10^7 CFU/mL and for SLU-2G cells was 5×10^6 CFU/mL.
(§2) Cells were added to 10 mL of molten, cooled (˜45° C.) underlayer agarose to a concentration of 1×10^6/mL and the suspension was poured into a level square petri plate with gentle rocking to allow even distribution and solidification to a uniform thickness of about 1 mm. Wells were cut into the hardened agarose with a sterilize, 3 mm diameter punch with vacuum.
Peptides were two-fold serially diluted with DPBS from a starting concentration of approximately 1 mg/mL. Amphotericin B and nystatin were similarly diluted starting at 100 and 225 μg/mL, respectively. Five μL were added per well and allowed to diffuse at 37° C. for 1.5-2.0 hours. Then 10 mL of molten overlayer agarose were added and the plates were incubated inverted at 37° C. overnight. Plates were stained with a dilute Coomassie solution, inhibition zones were measured with calipers and net areas were calculated, then converted to pmol values by PROBIT analysis. The results of a representative experiment are shown in FIG. 2A for the SLU-1 strain and FIG. 2B for the SLU-2G strain. In FIGS. 2A and 2B, the fungicidal activity is represented for XMP.13 as open circles; for XMP.37 as closed circles; for XMP.97 as open triangles; for XMP.127 as closed triangles; for amphotericin B as open squares; and for nystatin as closed squares. The pmol for a 30 mm^2 zone of inhibition were calculated to be: for XMP.13, 689 pmol against SLU-1 and 129 pmol against SLU-2G; for XMP.37, 231 pmol against SLU-1 and 75 pmol against SLU-2G; for XMP.97, 670 pmol against SLU-1 and 161 pmol against SLU-2G; for XMP.127, 935 pmol against SLU-1 and 116 pmol against SLU-2G; for amphotericin B, 36 pmol against SLU-1 and >541 pmol for SLU-2G; and for nysttin, 98 pmol against SLU-1 and >1,215 pmol against SLU-2G.

[1] = test system: Candida albicans SLU-2G amphotericin B-resistant strain; test: Radial diffusion assay (Example 3), amphotericin B-resistant strain; assay type: cell-based; conditions: FIG. 2B
Experimental: Domain III derived peptides were tested for their fungicidal activity on amphotericin resistant Candida. Resistant colonies of Candida were isolated using a gradient plate technique. A slanted Sabouraud dextrose agar plate was poured and allowed to harden. The plate was made level and additional agar supplemented with nystatin (Sigma, St. Louis, Mo., cat. no. N-3503) at a concentration of 10 μg/mL was poured. Cells from the CA-1 colony of Candida albicans SLU-1 strain described in Example 2 (10^7 cells in a volume of 100 μL) were spread over the plate and incubated at […] overnight.
as §1, with “determination.” for “determination. One OD570 for SLU-1 cells was 3×10^7 CFU/mL and for SLU-2G cells was 5×10^6 CFU/mL.”
as §2
Peptides were two-fold serially diluted with DPBS from a starting concentration of approximately 1 mg/mL. […] Five μL were added per well and allowed to diffuse at 37° C. for 1.5-2.0 hours. Then 10 mL of molten overlayer agarose were added and the plates were incubated inverted at 37° C. overnight. Plates were stained with a dilute Coomassie solution, inhibition zones were measured with calipers and net areas were calculated, then converted to pmol values by PROBIT analysis.

[2] = test system: C. albicans (CA-1, Strain SLU-1); test: Radial diffusion assay; assay type: cell-based, Candida albicans; conditions: pmoles of peptide added to well to achieve a 30 mm^2 zone, PROBIT analysis, crude or purified (P′) peptide
Method in brief: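 Yeast at 1×10^6 CFU/mL in agarose underlayer (3% Sabouraud, 10 mM sodium phosphate pH 7.4); 2-fold peptide dilutions in D-PBS from ~1 mg/mL loaded into wells, 3 h at 37° C, then nutrient overlayer overnight. Value: pmol/well giving 30 mm^2 net clear zone, by PROBIT regression.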

Q: Which results are given for `C[C@@H]1[C@H](O)[C@@H](C)/C=C/C=C/C=C/C=C/C=C/C=C/C=C/[C@H](O[C@@H]2O[C@H](C)[C@@H](O)[C@H](N)[C@@H]2O)C[C@@H]2O[C@](O)(C[C@@H](O)C[C@@H](O)[C@H](O)CC[C@@H](O)C[C@@H](O)CC(=O)O[C@H]1C)C[C@H](O)[C@H]2C(=O)O` [Amphotericin B, amphotericin B, reference compound]?
A: pmol for a 30 mm^2 zone of inhibition against SLU-1 (Candida albicans SLU-1): 36 pmol; pmol for a 30 mm^2 zone of inhibition against SLU-2G [1]: > 541 pmol

Q: H-KSKVGWAIQLFHKK-NH2 [XMP.37] was tested. Which “pmol for a 30 mm^2 zone of inhibition against SLU-1” value (Candida albicans SLU-1) did it give?
A: 231 pmol

Q: What about the “pmol for a 30 mm^2 zone of inhibition against SLU-2G” value [1] of the same molecule?
A: 75 pmol

Q: What about the “C. albicans pmol/30 mm^2 zone” value [2] of the same molecule?
A: 253 pmol/30 mm^2 zone

Q: Which results are given for H-KSKVGWLIQLFHKK-NH2 [XMP.13]?
A: pmol for a 30 mm^2 zone of inhibition against SLU-1 (Candida albicans SLU-1): 689 pmol; pmol for a 30 mm^2 zone of inhibition against SLU-2G [1]: 129 pmol; C. albicans pmol/30 mm^2 zone [2]: 541 pmol/30 mm^2 zone; C. albicans pmol/30 mm^2 zone ([2]; listed as XMP.13P′): 222 pmol/30 mm^2 zone

Q: For H-SKVKWLIQLFHKK-NH2 [XMP.284], which “C. albicans pmol/30 mm^2 zone” value [2] is on record?
A: 1,460 pmol/30 mm^2 zone

Q: What about the “C. albicans pmol/30 mm^2 zone” value ([2]; listed as XMP.284P′) of the same molecule?
A: 373 pmol/30 mm^2 zone
